We go through 43 molecules from patent publication US12258355B2, “Probes for imaging huntingtin protein” (CHDI Foundation, Inc., priority 2014, dated 2025).

T1 sequence (P42858 with tags, fused parts or gaps with the stated changes, form open): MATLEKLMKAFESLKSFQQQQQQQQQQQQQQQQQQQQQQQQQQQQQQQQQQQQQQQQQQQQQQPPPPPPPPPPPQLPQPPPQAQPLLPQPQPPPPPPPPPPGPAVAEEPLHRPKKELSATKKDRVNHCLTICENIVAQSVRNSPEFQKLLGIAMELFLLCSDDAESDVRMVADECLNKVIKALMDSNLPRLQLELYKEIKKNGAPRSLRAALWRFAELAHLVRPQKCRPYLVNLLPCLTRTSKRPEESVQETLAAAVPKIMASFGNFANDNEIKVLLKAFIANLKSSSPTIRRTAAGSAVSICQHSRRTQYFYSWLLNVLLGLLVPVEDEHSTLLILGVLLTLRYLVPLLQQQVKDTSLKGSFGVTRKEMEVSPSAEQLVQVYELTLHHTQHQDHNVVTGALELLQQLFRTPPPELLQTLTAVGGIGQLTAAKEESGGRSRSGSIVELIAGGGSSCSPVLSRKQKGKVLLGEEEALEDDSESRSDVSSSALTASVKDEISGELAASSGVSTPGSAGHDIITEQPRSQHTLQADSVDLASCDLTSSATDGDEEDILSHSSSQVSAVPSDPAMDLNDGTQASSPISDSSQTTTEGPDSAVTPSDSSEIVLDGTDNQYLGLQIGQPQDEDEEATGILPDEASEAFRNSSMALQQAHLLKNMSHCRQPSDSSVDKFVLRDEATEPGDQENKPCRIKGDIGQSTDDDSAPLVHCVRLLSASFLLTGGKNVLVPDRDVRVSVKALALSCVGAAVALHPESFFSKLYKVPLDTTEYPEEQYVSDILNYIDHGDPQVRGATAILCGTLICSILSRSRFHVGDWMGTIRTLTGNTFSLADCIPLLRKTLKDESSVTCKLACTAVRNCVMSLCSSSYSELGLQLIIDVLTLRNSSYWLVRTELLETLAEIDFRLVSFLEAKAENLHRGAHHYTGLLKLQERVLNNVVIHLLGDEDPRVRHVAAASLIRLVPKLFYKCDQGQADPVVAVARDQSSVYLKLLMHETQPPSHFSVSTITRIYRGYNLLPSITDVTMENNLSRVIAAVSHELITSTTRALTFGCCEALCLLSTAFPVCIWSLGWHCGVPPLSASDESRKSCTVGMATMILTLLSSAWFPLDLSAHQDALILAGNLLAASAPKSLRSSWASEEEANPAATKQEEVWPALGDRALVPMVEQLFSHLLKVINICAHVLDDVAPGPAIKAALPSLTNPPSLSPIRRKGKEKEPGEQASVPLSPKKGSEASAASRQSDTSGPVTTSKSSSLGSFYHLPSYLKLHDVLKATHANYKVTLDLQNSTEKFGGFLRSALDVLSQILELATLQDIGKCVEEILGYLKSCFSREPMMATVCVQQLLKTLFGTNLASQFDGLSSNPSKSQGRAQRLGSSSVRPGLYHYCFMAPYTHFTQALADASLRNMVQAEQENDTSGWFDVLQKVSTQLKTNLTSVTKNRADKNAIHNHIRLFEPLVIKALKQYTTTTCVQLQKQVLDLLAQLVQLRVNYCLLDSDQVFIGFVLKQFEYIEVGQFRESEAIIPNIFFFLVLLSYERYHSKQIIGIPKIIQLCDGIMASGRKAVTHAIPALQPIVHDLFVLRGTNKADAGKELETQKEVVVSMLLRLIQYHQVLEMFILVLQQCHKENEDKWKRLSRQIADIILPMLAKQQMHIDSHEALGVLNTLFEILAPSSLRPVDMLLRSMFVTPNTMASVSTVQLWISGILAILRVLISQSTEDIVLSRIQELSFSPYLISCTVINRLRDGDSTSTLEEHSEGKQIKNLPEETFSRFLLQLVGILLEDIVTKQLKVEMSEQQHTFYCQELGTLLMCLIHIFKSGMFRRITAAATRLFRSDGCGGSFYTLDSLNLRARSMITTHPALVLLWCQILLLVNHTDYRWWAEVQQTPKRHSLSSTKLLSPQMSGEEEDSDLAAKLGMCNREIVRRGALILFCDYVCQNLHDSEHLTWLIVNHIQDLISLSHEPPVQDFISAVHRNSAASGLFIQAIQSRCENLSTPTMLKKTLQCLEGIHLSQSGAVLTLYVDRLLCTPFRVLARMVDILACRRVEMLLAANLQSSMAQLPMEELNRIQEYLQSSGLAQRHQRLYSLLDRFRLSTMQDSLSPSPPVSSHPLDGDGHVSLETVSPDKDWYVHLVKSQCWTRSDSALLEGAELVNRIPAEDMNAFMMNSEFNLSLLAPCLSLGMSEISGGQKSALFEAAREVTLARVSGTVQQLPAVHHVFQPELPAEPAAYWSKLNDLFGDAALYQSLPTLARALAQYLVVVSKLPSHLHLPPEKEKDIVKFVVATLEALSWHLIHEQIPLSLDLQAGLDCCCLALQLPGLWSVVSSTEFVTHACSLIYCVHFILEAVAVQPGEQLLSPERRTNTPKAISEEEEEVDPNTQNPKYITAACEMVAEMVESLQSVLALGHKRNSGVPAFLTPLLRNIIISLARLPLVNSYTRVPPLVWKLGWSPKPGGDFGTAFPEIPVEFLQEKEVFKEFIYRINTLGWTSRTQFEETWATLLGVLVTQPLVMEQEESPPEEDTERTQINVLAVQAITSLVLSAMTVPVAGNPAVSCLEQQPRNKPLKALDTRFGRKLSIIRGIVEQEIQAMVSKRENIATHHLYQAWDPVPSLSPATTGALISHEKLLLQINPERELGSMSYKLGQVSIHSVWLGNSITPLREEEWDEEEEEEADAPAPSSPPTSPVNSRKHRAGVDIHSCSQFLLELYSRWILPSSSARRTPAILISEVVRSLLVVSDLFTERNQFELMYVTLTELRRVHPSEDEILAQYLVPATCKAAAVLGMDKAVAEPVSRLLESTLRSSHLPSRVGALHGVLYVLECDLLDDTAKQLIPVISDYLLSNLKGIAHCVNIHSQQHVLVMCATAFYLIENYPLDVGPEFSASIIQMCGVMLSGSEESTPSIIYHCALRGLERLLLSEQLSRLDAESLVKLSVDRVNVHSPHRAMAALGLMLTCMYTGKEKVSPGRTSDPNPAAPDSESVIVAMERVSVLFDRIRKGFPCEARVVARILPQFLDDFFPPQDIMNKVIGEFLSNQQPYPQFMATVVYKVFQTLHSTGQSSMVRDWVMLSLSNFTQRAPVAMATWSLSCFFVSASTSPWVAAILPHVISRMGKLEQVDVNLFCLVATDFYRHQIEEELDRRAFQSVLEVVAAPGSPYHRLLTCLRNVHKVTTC

This experiment has as its target T1, Q46 protein aggregates (Homo sapiens, UniProt P42858).
T1 construct: fused on or other part: GST at the N-terminus, cut off with thrombin before the test to start aggregation; The wells held aggregated Q46 without GST
The experiment in a line: Q46 radioligand binding assay (RBA). The conditions noted are these: 10 nM ligand [3H3]MK-3328. As to the method:
Q46 Radioligand Binding Assay
For radioligand binding assays (RBA) GST-Q46 protein was generated based on a previous publication (Scherzinger et al. Cell, Vol. 90, 549-558, Aug. 8, 1997). For experiments 33 μM GST-Q46 was incubated with 150 μg/mL thrombin in assay buffer (150 mM NaCl, 50 mM Tris pH 8.0) and 2 mM CaCl2 for 16 hours at 37° C. Aggregated Q46 was pelleted by centrifugation for 5 minutes at 13,000 rpm in a bench top centrifuge and re-dissolved in the same volume of assay buffer. Test compounds were prepared by titration in DMSO at 11 concentrations from 33 μM to 1 nM. For the RBA, Q46 protein aggregates and test compounds were pre-incubated in assay buffer for 20 minutes at room temperature, in 140 μL/well in a 96-well plate (pp, round bottom). Then, ligand was added in 10 μL/well and incubated for 60 minutes at 37° C. Final assay concentrations were 1 μM to 30 pM test compound, 5 μM Q46 protein (equivalent monomer concentration) and 10 nM ligand [^3H3]MK-3328 (Harrision et al., ACS Med. Chem. Lett., 2 (2011), pp 498-502). Samples were transferred onto GF/B filter plates and washed 2× with 200 μL PBS using a Filtermate Harvester. After drying filter plates for 1 hour at 37° C., the back of the plates were sealed with foil and 30 μL/well scintillation fluid (Packard MicroScint 40) added, incubated for 15 minutes in the dark and counted in a TopCount reader. For analysis, replicate data from independent assay plates were normalized towards 0% and 100% inhibition using control wells of vehicle (0% inhibition) and 3 μM unlabelled MK-3328 (100% inhibition). IC50 values were determined with a sigmoidal inhibition model with four variables (top, bottom, slope, IC50) in a global fit using the normalized replicate data.
The IC50 is the concentration that gives 50% inhibition. For `COc1ccnc(C(=O)Nc2ccc3oc(-c4cccnc4)nc3c2)c1` [4-methoxy-N-[2-(pyridin-3-yl)-1,3-benzoxazol-5-yl]pyridine-2-carboxamide], the half-inhibitory concentration (IC50) was less than 100 nM.
As for `COc1ccc(C(=O)Nc2ccc3oc(-c4ccncc4)nc3c2)cc1` [4-methoxy-N-[2-(pyridin-4-yl)-1,3-benzoxazol-5-yl]benzamide], the figure is less than 100 nM; as for `Cn1ccnc1COc1ccc2oc(-c3ccncc3C#N)cc2c1` [4-{5-[(1-methyl-1H-imidazol-2-yl)methoxy]-1-benzofuran-2-yl}pyridine-3-carbonitrile], 100 to 500 nM.
As for `Cn1cnc(COc2ccc3oc(-c4ccncc4C#N)cc3c2)c1` [4-{5-[(1-methyl-1H-imidazol-4-yl)methoxy]-1-benzofuran-2-yl}pyridine-3-carbonitrile], the figure is less than 100 nM; as for `Cn1cc(COc2ccc3oc(-c4ccncc4C#N)cc3c2)cn1` [4-{5-[(1-methyl-1H-pyrazol-4-yl)methoxy]-1-benzofuran-2-yl}pyridine-3-carbonitrile], less than 100 nM.
As for `COc1ccc(COc2ccc3oc(-c4ccc(C#N)cc4)nc3c2)nc1` [4-{5-[(5-methoxypyridin-2-yl)methoxy]-1,3-benzoxazol-2-yl]benzonitrile], the figure is less than 100 nM; as for `COc1ccc(COc2ccc3oc(-c4ccncc4C#N)cc3c2)nc1` [4-{5-[(5-methoxypyridin-2-yl)methoxy]-1-benzofuran-2-yl}pyridine-3-carbonitrile], less than 100 nM.
`COc1ccc(COc2ccc3oc(-c4ccncc4)cc3c2)nc1` [4-{5-[(5-methoxypyridin-2-yl)methoxy]-1-benzofuran-2-yl}pyridine] registered an IC50 of less than 100 nM.
In turn, `CC(=O)Oc1ccc(C(=O)Nc2ccc3oc(-c4ccc(Cl)cc4)nc3c2)cc1` [4-{[2-(4-chlorophenyl)-1,3-benzoxazol-5-yl]carbamoyl}phenyl acetate] yielded a 50% inhibitory concentration (IC50) of less than 100 nM.
As for `Cn1cc(-c2ccc3oc(-c4cccnc4)nc3c2)cn1` [5-(1-methyl-1H-pyrazol-4-yl)-2-(pyridin-3-yl)-1,3-benzoxazole], the figure is 100 to 500 nM.
As for `Cn1cc(-c2ccc(COc3cnc4oc(-c5cccnc5)nc4c3)nc2)cn1` [5-(1-methyl-1H-pyrazol-4-yl)-2-({[2-(pyridin-3-yl)-[1,3]oxazolo[5,4-b]pyridin-6-yl]oxy}methyl)pyridine], the figure is less than 100 nM; as for `COc1ncc(-c2ccc3oc(-c4cccnc4)nc3c2)cn1` [5-(2-methoxypyrimidin-5-yl)-2-(pyridin-3-yl)-1,3-benzoxazole], 100 to 500 nM; as for `COc1ccc(-c2ccc3oc(-c4cccnc4)nc3c2)cc1` [5-(4-methoxyphenyl)-2-(pyridin-3-yl)-1,3-benzoxazole], less than 100 nM.
Then `COc1cnc(-c2ccc3oc(-c4cccnc4)nc3c2)cn1` [5-(5-methoxypyrazin-2-yl)-2-(pyridin-3-yl)-1,3-benzoxazole], with less than 100 nM; and `COc1ccc(-c2ccc3oc(-c4cccnc4)nc3c2)nc1` [5-(5-methoxypyridin-2-yl)-2-(pyridin-3-yl)-1,3-benzoxazole], with 100 to 500 nM.
In the case of `COc1cnc(-c2ccc3oc(-c4cccnc4)nc3c2)nc1` [5-(5-methoxypyrimidin-2-yl)-2-(pyridin-3-yl)-1,3-benzoxazole], the concentration for half-maximal inhibition (IC50) is less than 100 nM.
Then `COc1ccc(-c2ccc3oc(-c4cccnc4)nc3c2)nn1` [5-(6-methoxypyridazin-3-yl)-2-(pyridin-3-yl)-1,3-benzoxazole], with less than 100 nM.
As for `c1ccc(COc2ccc3oc(-c4cccnc4)nc3c2)nc1` [5-(pyridin-2-ylmethoxy)-2-(pyridin-3-yl)-1,3-benzoxazole], the figure is 100 to 500 nM; as for `c1cncc(-c2nc3cc(OCc4ccc(OCCN5CCOCC5)cn4)ccc3o2)c1` [5-({5-[2-(morpholin-4-yl)ethoxy]pyridin-2-yl}methoxy)-2-(pyridin-3-yl)-1,3-benzoxazole], less than 100 nM; as for `O=c1cnc(COc2ccc3oc(-c4cccnc4)nc3c2)c[nH]1` [5-({[2-(pyridin-3-yl)-1,3-benzoxazol-5-yl]oxy}methyl)-1,2-dihydropyrazin-2-one], 100 to 500 nM.
As for `c1ccc(OCCOc2ccc3oc(-c4cccnc4)nc3c2)nc1` [5-[2-(pyridin-2-yloxy)ethoxy]-2-(pyridin-3-yl)-1,3-benzoxazole], the figure is 100 to 500 nM; as for `Oc1cnc(-c2ccc3oc(-c4cccnc4)nc3c2)cn1` [5-[2-(pyridin-3-yl)-1,3-benzoxazol-5-yl]pyrazin-2-ol], 100 to 500 nM; as for `COc1cnc(N2CCN(c3ccc4oc(-c5cccnc5)nc4c3)CC2)nc1` [5-[4-(5-methoxypyrimidin-2-yl)piperazin-1-yl]-2-(pyridin-3-yl)-1,3-benzoxazole], less than 100 nM.
Consider `COCCOc1cnc(-c2ccc3oc(-c4cccnc4)nc3c2)nc1` [5-[5-(2-methoxyethoxy)pyrimidin-2-yl]-2-(pyridin-3-yl)-1,3-benzoxazole], for which the IC50 was less than 100 nM.
`Cn1cc(COc2ccc3oc(-c4cccnc4)nc3c2)cn1` [5-[(1-methyl-1H-pyrazol-4-yl)methoxy]-2-(pyridin-3-yl)-1,3-benzoxazole]: the IC50 was 100 to 500 nM.
On to `COc1cccc(COc2ccc3oc(-c4cccnc4)nc3c2)c1` [5-[(3-methoxyphenyl)methoxy]-2-(pyridin-3-yl)-1,3-benzoxazole], for which the IC50 is less than 100 nM.
Then `COc1ccc(COc2ccc3oc(-c4cccnc4)nc3c2)cc1` [5-[(4-methoxyphenyl)methoxy]-2-(pyridin-3-yl)-1,3-benzoxazole], with less than 100 nM; and `Brc1ccc(COc2ccc3oc(-c4cccnc4)nc3c2)nc1` [5-[(5-bromopyridin-2-yl)methoxy]-2-(pyridin-3-yl)-1,3-benzoxazole], with less than 100 nM.
Then `COc1cnc(COc2ccc3c(c2)nc(-c2cccnc2)n3C)cn1` [5-[(5-methoxypyrazin-2-yl)methoxy]-1-methyl-2-(pyridin-3-yl)-1H-1,3-benzodiazole], with 100 to 500 nM; and `COc1cnc(COc2ccc3oc(-c4cnn(C)c4)nc3c2)cn1` [5-[(5-methoxypyrazin-2-yl)methoxy]-2-(1-methyl-1H-pyrazol-4-yl)-1,3-benzoxazole], with less than 100 nM; and `COc1cnc(COc2ccc3oc(-c4cccnc4)nc3c2)cn1` [5-[(5-methoxypyrazin-2-yl)methoxy]-2-(pyridin-3-yl)-1,3-benzoxazole], with less than 100 nM.
Then `COc1cnc(COc2ccc3[nH]c(-c4cccnc4)nc3c2)cn1` [5-[(5-methoxypyrazin-2-yl)methoxy]-2-(pyridin-3-yl)-1H-1,3-benzodiazole], with less than 100 nM; and `COc1ccc(COc2ccc3oc(-c4cncs4)nc3c2)nc1` [5-[(5-methoxypyridin-2-yl)methoxy]-2-(1,3-thiazol-5-yl)-1,3-benzoxazole], with less than 100 nM; and `COc1ccc(COc2ccc3oc(-c4cn(C)cn4)nc3c2)nc1` [5-[(5-methoxypyridin-2-yl)methoxy]-2-(1-methyl-1H-imidazol-4-yl)-1,3-benzoxazole], with 100 to 500 nM.
As to `COc1ccc(COc2ccc3oc(C4CCN(C)CC4)nc3c2)nc1` [5-[(5-methoxypyridin-2-yl)methoxy]-2-(1-methylpiperidin-4-yl)-1,3-benzoxazole], the IC50 fell in the range of 100 to 500 nM.
Then `COc1ccc(COc2ccc3oc(-c4ccnc(C)c4)nc3c2)nc1` [5-[(5-methoxypyridin-2-yl)methoxy]-2-(2-methylpyridin-4-yl)-1,3-benzoxazole], with less than 100 nM.
Then `COc1ccc(COc2ccc3oc(-c4cccc(Oc5ccccc5)c4)nc3c2)nc1` [5-[(5-methoxypyridin-2-yl)methoxy]-2-(3-phenoxyphenyl)-1,3-benzoxazole], with less than 100 nM; and `COc1ccc(COc2ccc3oc(-c4cncc(C)c4)nc3c2)nc1` [5-[(5-methoxypyridin-2-yl)methoxy]-2-(5-methylpyridin-3-yl)-1,3-benzoxazole], with less than 100 nM.
Take `COc1ccc(COc2ccc3oc(N4CCNCC4)nc3c2)nc1` [5-[(5-methoxypyridin-2-yl)methoxy]-2-(piperazin-1-yl)-1,3-benzoxazole]: the IC50 is greater than 50 nM.
As to `COc1ccc(COc2ccc3oc(-c4cnccn4)nc3c2)nc1` [5-[(5-methoxypyridin-2-yl)methoxy]-2-(pyrazin-2-yl)-1,3-benzoxazole], the IC50 is less than 100 nM.
Then `COc1ccc(COc2ccc3oc(-c4cccnn4)nc3c2)nc1` [5-[(5-methoxypyridin-2-yl)methoxy]-2-(pyridazin-3-yl)-1,3-benzoxazole], with less than 100 nM.
As for `COc1ccc(COc2ccc3oc(-c4ccnnc4)nc3c2)nc1` [5-[(5-methoxypyridin-2-yl)methoxy]-2-(pyridazin-4-yl)-1,3-benzoxazole], the figure is less than 100 nM; as for `COc1ccc(COc2ccc3oc(-c4cccnc4)nc3c2)nc1` [5-[(5-methoxypyridin-2-yl)methoxy]-2-(pyridin-3-yl)-1,3-benzoxazole], less than 100 nM.
